We go through 1 compound from publication PMC5013292, “A Putative Bacterial ABC Transporter Circumvents the Essentiality of Signal Peptidase” (mBio, 2016).

For test [1], the system named is cro/cI(−62G→A)(pMK4) (GNE0099). The test is described as follows: MIC fold increase, GNE0099. The class given is cell-based, S. aureus. The protocol: (§1) MICs were determined according to the standard protocol from the Clinical and Laboratory Standards Institute ([23]). Briefly, S. aureus bacteria were harvested from regular MHA plates that had been cultured for ~20 h at 37°C. Serial dilutions of compound 103 were incubated with bacteria at approximately 10^6 CFU (CFU)/ml in MHB in round-bottom 96 well plates (Corning, Corning, NY) for 22 h at 37°C. MICs were determined by the lowest concentration of compound 103 showing absence of growth by visual inspection.

The subject of another test is S. aureus USA300. The test is described as follows: Frequency of spontaneous resistance, USA300. The class given is cell-based. As to conditions: agar with compound 103 at fourfold its MIC; 37°C, 2 days; output/input CFU. The method, then:
To determine the frequency of spontaneous resistance, suspensions containing approximately 5 × 10^9 CFU of S. aureus were cultured on MHA plates containing compound 103 at fourfold the MIC; serial dilutions were cultured in parallel on regular MHA to determine the actual number of CFU (input). The frequency of spontaneous resistance was defined as the number of viable colonies able to grow in the presence of compound 103 after culture at 37°C for 2 days (output) divided by input.

For test [2], the system named is psarA-SAUSA300_0351_0352_0353 (GNE0162). The test is described as follows: MIC fold increase, GNE0162. The class given is cell-based, S. aureus. The protocol:
as §1
(§2) To generate mutations in SAUSA300_0351, _0352, and _0353 genes by homologous recombination, we transformed USA300 Δmcr using targeting constructs created in the vector pIMAY ([24]). To generate mutations in SAUSA300_0351, _0352, and _0353 genes in a cro/cI mutant background, we selected colonies from USA300 Δmcr cultured on plates containing fourfold the MIC of compound 103. Sequencing of PCR products of the cro/cI gene from resistant colonies yielded a clone with a Q16stop codon mutation in cro/cI (strain GNE0173). We further mutated SAUSA300_0351, _0352, and _0353 in this USA300 Δmcr cro/cI (Q16stop) clone to study the contributions of these three genes to cro/cI-mediated resistance.

Test [3] has as its system cro/cI(−14G→T)(pcro/cI-cro/cI) (GNE0097). Put plainly: MIC fold increase, GNE0097. The class given is cell-based, S. aureus. The protocol: as §1
Test [4] deals with cro/cI(−14G→T)(pMK4) (GNE0096). Put plainly: MIC fold increase, GNE0096. The class given is cell-based, S. aureus. The method, then:
as §1

Test [5] has as its system Δmcr cro/cI(Q16stop) ΔSAUSA300_0353 (GNE0210). The test is described as follows: MIC fold increase, GNE0210. The class given is cell-based, S. aureus. The protocol:
as §1, §2

For test [6], the system named is Δmcr cro/cI(Q16stop) (GNE0173). Put plainly: MIC fold increase, GNE0173. The class given is cell-based, S. aureus. The method, then: as §1, §2
Test [7] relates to cro/cI(M1V)(pcro/cI-cro/cI) (GNE0109). The test is described as follows: MIC fold increase, GNE0109. The class given is cell-based, S. aureus. The protocol:
as §1

Test [8] has as its system Δmcr cro/cI(Q16stop) SAUSA300_0352(K44A) (GNE0175). Put plainly: MIC fold increase, GNE0175. The class given is cell-based, S. aureus. The protocol: as §1, §2
Test [9] relates to S. aureus USA300 SpsB-high. The test is described as follows: MIC, USA300 SpsB-high. The class given is cell-based. As to conditions: result in words. The protocol: as §1
A strain of USA300 Δmcr overexpressing SpsB (USA300 SpsB-high; GNE0028) was engineered by cloning SpsB under the constitutive sarA promoter into vector pMK4, resulting in SpsB expression that was ~20-fold higher than the wild-type level as determined by Western blotting. A USA300 Δmcr strain that underexpresses SpsB (USA300 SpsB-low; […]) was generated by genomic incorporation of spsB under the isopropyl-β-D-thiogalactopyranoside (IPTG)-sensitive promoter spac; without IPTG, this strain expresses SpsB at ~5% of the wild-type level as determined by Western blotting.

Test [10] deals with SpsB Y30C mutant of USA300 Δmcr cro/cI(Q16stop) SAUSA300_0352(K44A). The test is described as follows: MIC fold increase, SpsB Y30C mutant. The class given is cell-based, S. aureus. The protocol:
as §1

Test [11] concerns 102 globally diverse clinical S. aureus isolates. The test is described as follows: MIC, global panel of 102 clinical isolates. The class given is cell-based. Conditions: among a panel of 102 clinical S. aureus isolates.
Source text: Wild-type clinical S. aureus strains were obtained from the Network on Antibiotic Resistance in Staphylococcus aureus (NARSA/BEI) program. MRSA strain USA300 refers throughout this paper to strain NRS384 from NARSA/BEI. A global panel of 102 clinical S. aureus isolates was selected from the collection of International Health Management Associates, Inc. (IHMA; Schaumburg, IL), based on diversity of geographic locations, antibiotic resistance profiles, and sites of infection. Bacteria were cultured on cation-adjusted Mueller-Hinton agar (MHA) plates or in cation-adjusted Mueller-Hinton broth (MHB). Bacterial strains used in this study are listed in Table S5 in the supplemental material.
as §1

The test system of test [12] is SpsB Y30S mutant of USA300 Δmcr cro/cI(Q16stop) SAUSA300_0352(K44A). Put plainly: MIC fold increase, SpsB Y30S mutant. The class given is cell-based, S. aureus. The protocol: as §1
Test [13] concerns SpsB V167D mutant of USA300 Δmcr cro/cI(Q16stop) SAUSA300_0352(K44A). Put plainly: MIC fold increase, SpsB V167D mutant. The class given is cell-based, S. aureus. The method, then: as §1
In test [14] the test system is SpsB H69L mutant of USA300 Δmcr cro/cI(Q16stop) SAUSA300_0352(K44A). Put plainly: MIC fold increase, SpsB H69L mutant. The class given is cell-based, S. aureus. The protocol:
as §1

Test [15] has as its target T1, full length recombinant SpsB (Staphylococcus aureus, UniProt P0A070).
T1 construct: 500 pM full length recombinant SpsB from S. aureus
The test is described as follows: Enzymatic activity of recombinant SpsB. The class given is biochemical, S. aureus. Conditions: result in words; Fig. S1C. The protocol:
White 384-well low-volume polypropylene assay plates (Thermo Scientific, Waltham, MA) were pre-spotted with 25 nL per well of compound 103, serially diluted in DMSO, using an Echo instrument (Labcyte, Sunnyvale, CA). A 10 µL reaction in PBS (pH 7.4) containing 0.1% Triton X-100 was then initiated by adding 500 pM full length recombinant SpsB from S. aureus plus 10 µM fluorogenic peptide substrate Dabcyl-βAla-KPAKAAE-Edans (GL Biochem, Boston, MA). Substrate cleavage separates the Dabcyl quencher from the Edans fluorophore, resulting in 490nm fluorescence (340nm excitation). The reaction was read kinetically using an M-1000 plate reader (Tecan, Morrisville, NC), plotting the initial slope (rate) of fluorescence generation versus inhibitor concentration to derive IC50 values.

Structures are written as SMILES.

T1 sequence (P0A070 whole entry): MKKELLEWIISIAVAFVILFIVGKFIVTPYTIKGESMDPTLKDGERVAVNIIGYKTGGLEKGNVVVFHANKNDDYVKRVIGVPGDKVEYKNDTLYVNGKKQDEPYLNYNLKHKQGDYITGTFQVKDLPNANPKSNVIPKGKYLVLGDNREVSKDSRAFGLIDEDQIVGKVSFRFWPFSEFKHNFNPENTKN

`CCCCc1ccc(-c2ccc(C(=O)N[C@@H](CCCCN)C(=O)N(C)[C@@H]3C(=O)N[C@@H](C)C(=O)N[C@H](C(=O)NCC(C)C(=O)O)Cc4ccc(O)c(c4)-c4cc3ccc4O)cc2)cc1` (stereo partly drawn) [Compound 103]: the “MIC of compound 103 (fold increase versus MIC for USA300 WT)” value was >32 fold in test [1]; >32 fold in test [2] (GNE0162); 3.0 fold in test [3] (GNE0097); >32 fold in test [4]; 1.0 fold in [5] (GNE0210); >32 fold in test [6]. In addition, the “MIC of compound 103 (fold increase versus MIC for USA300 WT)” value in [7] (GNE0109) is recorded as 1.7 fold; in [8] (GNE0175), 1.0 fold; in test [10] it was 4 fold; in test [12], 4 fold; in test [13], 8 fold; in test [14] it was 4 fold. The “frequency of spontaneous resistance” value with S. aureus USA300 is reported as 3 × 10^−7. For the same compound, the resistance phenotype entry in test [2] (GNE0162, overexpression of 3 ABC transporter genes, result in words) is given as “induced resistance”; in [3] (GNE0097, plasmid-encoded WT cro/cI, result in words), “reversed the resistant phenotype”; in [5] (GNE0210, deletion of SAUSA300_0353, result in words) it was “reversed the resistant phenotype”; in [7] (GNE0109, plasmid-encoded WT cro/cI, result in words) it was “reversed the resistant phenotype”; in test [8] (GNE0175, SAUSA300_0352(K44A), result in words), “reversed the resistant phenotype”. Further, the “MIC for an SpsB-overexpressing strain” value in [9] is listed as “increased MIC”. Besides, in test [11], the “isolates resistant to compound 103” value was determined as 7 isolates. Also, the “inhibition of enzymatic activity of recombinant SpsB” value in [15] is “dose dependently inhibited”.
